Results from patent US8507559B2, “Cyclohexenyl modulators of chemokine receptor activity” (Bristol-Myers Squibb Company, priority 2008, dated 2013).

Biological target: T1, CCR2 (Homo sapiens, UniProt P41597)
T1 construct: THP-1 human monocytic leukemic cell line, which expresses endogenous CCR2; endogenous in cells; host or cells: human peripheral blood mononuclear cells, human monocytes or THP-1 cells
T1 sequence (P41597 1-360 isoform P41597-2): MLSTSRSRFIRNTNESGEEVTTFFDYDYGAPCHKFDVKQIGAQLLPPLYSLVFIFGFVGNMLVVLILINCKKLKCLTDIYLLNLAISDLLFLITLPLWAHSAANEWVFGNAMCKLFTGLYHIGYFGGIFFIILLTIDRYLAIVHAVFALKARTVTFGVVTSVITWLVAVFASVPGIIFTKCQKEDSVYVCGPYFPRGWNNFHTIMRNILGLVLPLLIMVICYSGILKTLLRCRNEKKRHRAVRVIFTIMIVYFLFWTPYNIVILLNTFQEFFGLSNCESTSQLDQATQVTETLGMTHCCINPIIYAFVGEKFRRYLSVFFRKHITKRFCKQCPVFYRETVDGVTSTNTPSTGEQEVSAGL
Assay: CCR2 binding: antagonism of 125I-MCP-1 binding (human PBMC / THP-1 whole cell)
Details: n = 1 unless otherwise noted
Experimental: Antagonism of MCP-1 Binding to Human PBMC
Millipore filter plates (#MABVN1250) are treated with 100 μl of binding buffer (0.5% bovine serum albumin, 20 mM HEPES buffer and 5 mM magnesium chloride in RPMI 1640 media) for thirty minutes at room temperature. To measure binding, 50 μl of binding buffer, with or without a known concentration compound, is combined with 50 μl of ^125-I labeled human MCP-1 (to give a final concentration of 150 pM radioligand) and 50 μl of binding buffer containing 5×10^5 cells. Cells used for such binding assays can include human peripheral blood mononuclear cells isolated by Ficoll-Hypaque gradient centrifugation, human monocytes (Weiner et al., J. Immunol. Methods. 1980, 36, 89), or the THP-1 cell line which expresses the endogenous receptor. The mixture of compound, cells and radioligand are incubated at room temperature for thirty minutes. Plates are placed onto a vacuum manifold, vacuum applied, and the plates washed three times with binding buffer containing 0.5M NaCl. The plastic skirt is removed from the plate, the plate allowed to air dry, the wells punched out and counted. The percent inhibition of binding is calculated using the total counts obtained in the absence of any competing compound and the background binding determined by addition of 100 nM MCP-1 in place of the test compound.
THP-1 Monocytic Cell Binding: Whole Cell-based Assay
The human CCR2 binding assay was also established with the THP-1 human monocytic leukemic cell line, which expresses endogenous CCR2, using ^125I-human MCP-1 as the tracer ligand. Radioligand competition binding assays were used for assessment of binding affinity of test compounds to the CCR2 receptor. For radioligand competition studies, 100 μl containing 2.5×10^5 THP-1 cells/well (in assay buffer containing 50 mM HEPES, pH7.4, 5 mM MgCl2, 1 mM CaCl2 and 0.5% BSA) were added to 96-well assay plates containing the test compounds in 3-fold serial dilution, with final concentrations ranging from 5 μM to 100 pM. Subsequently, 50 μl ^125I-MCP-1 radioligand at a final concentration of 0.2 nM in assay buffer were added to the reaction. After a 90 minute incubation period at room temperature, the binding reaction was terminated by harvesting on GF/B filter plates (PerkinElmer Cat. No. 6005177) followed by washing with ice-cold wash buffer (50 mM HEPES, pH 7.4, 0.1% BSA, 0.5 M NaCl) to remove unbound ligand. After washing, the plate was dried for 45 minutes at 60° C. followed by addition of 40 μl MicroScint 20 scintillation fluid, sealed and analyzed by the Packard TopCount reader. Non-specific binding was determined in the presence of 10 μM (a molar excess of 5000 fold) of an in-house CCR2 small molecule antagonist (CCR2 IC50=2 nM). Specific binding of ^125I-MCP-1 was calculated as the difference between total and non-specific binding. The competition data was plotted as a percentage inhibition of radioligand specific bound in the absence of test compound (percent of total signal). After correcting for non-specific binding, IC50 values were determined. The IC50 is defined as the concentration of test compound required to reduce ^125I-MCP-1 specific binding by 50% and was calculated using the four parameter logistic equation to fit the normalized data.

SMILES | Ki
C[C@@H]1CC=C(C(=O)O)[C@@](C)(c2cccc3ccccc23)C1 (racemic) [Example 1-16, (4RS,6RS)-4,6-dimethyl-6-(napthalen-1-yl)cyclohex-1-enecarboxylic acid] | 140 nM
C[C@@H]1CC=C(C(=O)O)[C@@](C)(c2ccc(Cl)c(C(F)(F)F)c2)C1 (racemic) [Example 1-13, (4RS,6RS)-6-(4-chloro-3-(trifluoromethyl)-phenyl)-4,6-dimethylcyclohex-1-enecarboxylic acid] | 11 nM
C[C@@H]1CC=C(C(=O)NS(=O)(=O)c2ccccc2)[C@@](C)(c2ccc(Cl)c(Cl)c2)C1 (racemic) [Example 3-03, (4RS,6RS)-6-(3,4-dichlorophenyl)-4,6-dimethyl-N-(phenylsulfonyl)cyclohex-1-enecarboxamide] | 150 nM
C[C@H]1CCC(C(=O)O)[C@](C)(c2cccc(C(F)(F)F)c2)C1 (mixture of isomers) [Example 2, (2RS,4SR)-2,4-dimethyl-2-(3-(trifluoromethyl)phenyl)cyclohexanecarboxylic acid] | 5800 nM
Cc1cc(C)cc([C@@]2(C)C[C@H](C)CC=C2C(=O)O)c1 (racemic) [Example 1-29, (4RS,6RS)-6-(3,5-dimethylphenyl)-4,6-dimethylcyclohex-1-enecarboxylic acid] | 300 nM
Cc1cc([C@@]2(C)C[C@H](C)CC=C2C(=O)O)cc(C)c1Cl (racemic) [Example 1-27, (4RS,6RS)-6-(4-chloro-3,5-dimethylphenyl)-4,6-dimethylcyclohex-1-enecarboxylic acid] | 130 nM
C[C@]1(c2ccc(Cl)c(C(F)(F)F)c2)C[C@H](CO)CC=C1C(=O)O (racemic) [Example 7, (4RS,6RS)-6-(4-chloro-3-(trifluoromethyl)-phenyl)-4-(hydroxymethyl)-6-methylcyclohex-1-enecarboxylic acid] | 210 nM
CC1(c2ccc(Cl)c(Cl)c2)CCCC=C1C(=O)O (racemic) [Example 1-01, 6-(3,4-dichlorophenyl)-6-methylcyclohex-1-enecarboxylic acid] | 440 nM
Cc1ccc([C@@]2(C)C[C@H](C)CC=C2C(=O)O)cc1 (racemic) [Example 1-17, (4RS,6RS)-4,6-dimethyl-6-p-tolylcyclohex-1-enecarboxylic acid] | 2600 nM
C[C@@H]1CC=C(C(=O)NS(=O)(=O)C(F)(F)F)[C@@](C)(c2ccc(Cl)c(Cl)c2)C1 (racemic) [Example 3-02, (4RS,6RS)-6-(3,4-dichlorophenyl)-4,6-dimethyl-N-(trifluoromethylsulfonyl)-cyclohex-1-enecarboxamide] | 6600 nM
CC1=C(C(=O)O)[C@@](O)(c2ccc(Cl)c(Cl)c2)C[C@H](C)C1 (racemic) [Example 5, (4RS,6SR)-6-(3,4-dichlorophenyl)-6-hydroxy-2,4,-dimethylcyclohex-1-enecarboxylic acid] | 1000 nM
C[C@@H]1CC=C(C(=O)NS(C)(=O)=O)[C@@](C)(c2ccc(Cl)c(Cl)c2)C1 (racemic) [Example 3-01, (4RS,6RS)-6-(3,4-dichlorophenyl)-4,6-dimethyl-N-(methylsulfonyl)cyclohex-1-enecarboxamide] | 5400 nM
C[C@@H]1CC=C(C(=O)O)[C@@](C)(c2ccc(Cl)c(C(F)(F)F)c2)C1 [Example 4-01b, (4R,6R)-6-(4-chloro-3-(trifluoromethyl)phenyl)-4,6-dimethylcyclohex-1-enecarboxylic acid] | 4500 nM
Cc1cccc([C@@]2(C)C[C@H](C)CC=C2C(=O)O)c1C (racemic) [Example 1-19, (4RS,6RS)-6-(2,3-dimethylphenyl)-4,6-dimethylcyclohex-1-enecarboxylic acid] | 3700 nM
C[C@@H]1CC=C(C(=O)O)[C@@](C)(c2cccc(-c3ccccc3)c2)C1 (racemic) [Example 1-03, (4RS,6RS)-6-(3-phenylphenyl)-4,6-dimethylcyclohex-1-enecarboxylic acid] | 250 nM
